Among the test systems are MOLT-4 leukemia; SNB-75 CNS; SR leukemia; NCI-H460 lung; K-562 leukemia; SK-MEL-28 melanoma; HS 578T breast; M14 melanoma; SNB-19 CNS; SF-539 CNS.
Test in all cases: growth of human tumour cells (NCI), 48 h

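Results reflect a 48-hour exposure of cells in 96-well plates to compound at five concentrations. Abbreviation: GI50, concentration required for 50% inhibition of growth. TGI denotes the concentration required for complete inhibition of growth.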

For the compound `COc1cccc2c1c1nc3cc(C)c(C)cc3nc1n2CCN(C)C`, the GI50 with MOLT-4 leukemia was 0.498 µM; in the assay with SNB-75 CNS it was 1.1 µM; in the assay with SR leukemia, 0.452 µM; in the assay with NCI-H460 lung it was 1.09 µM; in the assay on K-562 leukemia, 0.982 µM; in the assay on SK-MEL-28 melanoma, 1.94 µM. For the same compound, the GI50 with HS 578T breast is 1.8 µM; in the assay with M14 melanoma, 1.24 µM; in the assay with SNB-19 CNS, 2.04 µM; in the assay with SF-539 CNS, 1.92 µM. For the same compound, the TGI turned out to be 5.56 µM in the assay on SNB-75 CNS; 8.7 µM in the assay on SR leukemia; 10.9 µM in the assay with NCI-H460 lung; 9.12 µM in the assay on K-562 leukemia; 4.23 µM in the assay with SK-MEL-28 melanoma; 6.99 µM in the assay on HS 578T breast. Moreover, the figures for the TGI in the assay with M14 melanoma, in the assay with SNB-19 CNS and in the assay on SF-539 CNS were 3.07 µM, 14 µM and 5.48 µM, respectively.

With `C/C(=C\c1c[nH]c2ccccc12)[N+](=O)[O-]`, the GI50 in the assay on MOLT-4 leukemia was 2.19 µM; in the assay with SNB-75 CNS, 1.89 µM; in the assay with SR leukemia, 1.15 µM; with NCI-H460 lung, 4.18 µM; in the assay with K-562 leukemia, 4.03 µM; with SK-MEL-28 melanoma it was 1.84 µM. Besides, the GI50 in the assay on HS 578T breast is 7.61 µM; with M14 melanoma, 2.57 µM; in the assay with SNB-19 CNS, 5.82 µM; in the assay with SF-539 CNS it was 3.7 µM. Also, the TGI worked out at 5.83 µM in the assay with MOLT-4 leukemia; 6.93 µM with SNB-75 CNS; 4.25 µM in the assay on SR leukemia; 17.4 µM with NCI-H460 lung; 16.5 µM with K-562 leukemia; 5.47 µM in the assay with SK-MEL-28 melanoma. The TGI was 43.8 µM with HS 578T breast, 5.65 µM in the assay on M14 melanoma, 20 µM with SNB-19 CNS and 15.2 µM with SF-539 CNS.

With `C/C(=C\c1ccn(-c2ccc(N)cc2)n1)[C@@H]1C[C@@H]2O[C@]2(C)CCC[C@H](C)[C@H](O)[C@@H](C)C(=O)C(C)(C)[C@@H](O)CC(=O)O1`, the GI50 in the assay with MOLT-4 leukemia is 0.0486 µM; with SNB-75 CNS, 0.00754 µM; in the assay on SR leukemia, 0.027 µM; in the assay on NCI-H460 lung it was 0.0202 µM; in the assay on K-562 leukemia it was 0.0248 µM; in the assay on HS 578T breast, 0.0863 µM. The GI50 in the assay with SNB-19 CNS was 0.29 µM; in the assay on SF-539 CNS, 0.0702 µM. Further, the TGI with MOLT-4 leukemia was greater than 50 µM; with SNB-75 CNS, 0.233 µM; in the assay on SR leukemia, greater than 50 µM; with NCI-H460 lung, greater than 50 µM; with K-562 leukemia, greater than 50 µM; in the assay on HS 578T breast, greater than 21.6 µM. Further, the TGI in the assay with SNB-19 CNS was greater than 50 µM; with SF-539 CNS, 0.357 µM.

As for `COC1CC2CCC(C)[C@](O)(O2)C(=O)C(=O)N2CCCCC2C(=O)OC(C(C)CC2CCC(O)C(OC)C2)CC(=O)C(C)C=C(C)C(OC(=O)CN(C)C)C(OC)C(=O)C(C)CC(C)/C=C/C=C/C=C\1C` (stereo partly specified), the TGI with NCI-H460 lung came to 21.7 µM; with K-562 leukemia, 13.6 µM; in the assay with SK-MEL-28 melanoma it was 20.7 µM; with HS 578T breast, 16.9 µM; with M14 melanoma it was 23 µM; with SNB-19 CNS it was 15.9 µM. The TGI with SF-539 CNS was found to be 12.7 µM.

Take `COC(=O)c1c2c(c(C)[n+]([O-])c1C)C(=O)C(NCc1ccc(F)c(F)c1)=CC2=O`: the GI50 in the assay with MOLT-4 leukemia is 2.44 µM; in the assay on SNB-75 CNS, 2.15 µM; in the assay on SR leukemia it was 1.62 µM; in the assay with NCI-H460 lung, 2.13 µM; with K-562 leukemia, 2.23 µM; with SK-MEL-28 melanoma, 4.11 µM. Further, the GI50 was 2.76 µM in the assay with HS 578T breast, 1.64 µM in the assay on M14 melanoma and 1.92 µM in the assay with SF-539 CNS. Moreover, the TGI in the assay with MOLT-4 leukemia turned out to be 4.86 µM; with SNB-75 CNS, 7.58 µM; with SR leukemia it was 6.24 µM; with NCI-H460 lung it was 10.2 µM; in the assay on K-562 leukemia, 9.59 µM; with SK-MEL-28 melanoma it was 13.8 µM. The TGI with HS 578T breast is 11.9 µM; in the assay on M14 melanoma, 3.6 µM; with SF-539 CNS, 4.12 µM.

In the case of `CCN(CC)CCOc1cc2c(C(=O)OC)c(C)oc2cc1C(C)=O`, the GI50 was 3.02 µM in the assay with MOLT-4 leukemia; 2.58 µM in the assay on SR leukemia; 29.9 µM in the assay on NCI-H460 lung; 4.7 µM in the assay with K-562 leukemia; 13.4 µM in the assay with HS 578T breast; 4.53 µM in the assay with M14 melanoma. In addition, the GI50 with SNB-19 CNS was 15.8 µM. For the same compound, the TGI in the assay with MOLT-4 leukemia is 7.5 µM; in the assay on SR leukemia it was 6.72 µM; with NCI-H460 lung, 91.8 µM; in the assay on K-562 leukemia, 29.2 µM; in the assay with HS 578T breast it was 31.4 µM; in the assay with M14 melanoma it was 16.9 µM. In the assay with SNB-19 CNS, this compound returned a TGI of 32.2 µM.

For `CC(C)(O)[C@H]1[C@@H]2OC(=O)[C@H]1[C@]1(O)C[C@H]3OC34C(=O)O[C@H]2[C@@]41C` (stereo partly specified) (tested in a mixture with another compound), the TGI with MOLT-4 leukemia, in the assay with SNB-75 CNS, with NCI-H460 lung, with K-562 leukemia, with SK-MEL-28 melanoma and with HS 578T breast was greater than 100 µM each time. For the same compound, the TGI in the assay on M14 melanoma, with SNB-19 CNS and in the assay with SF-539 CNS was greater than 100 µM throughout.

For the compound `O=C(Cn1ccnc1[N+](=O)[O-])NCC(F)(F)C(F)(F)F`, the GI50 with SNB-75 CNS, with NCI-H460 lung, in the assay on SK-MEL-28 melanoma, in the assay on HS 578T breast, in the assay with M14 melanoma and in the assay with SNB-19 CNS was greater than 100 µM each time. Also, the GI50 in the assay with SF-539 CNS was greater than 100 µM. The TGI in the assay on SNB-75 CNS, in the assay on NCI-H460 lung, in the assay with SK-MEL-28 melanoma, with HS 578T breast, in the assay with M14 melanoma and in the assay with SNB-19 CNS was greater than 100 µM each time. In the assay on SF-539 CNS, this compound gave a TGI greater than 100 µM.

Consider `CC[C@H](C)C(=O)O[C@H]1CCC=C2C=C[C@H](C)C(CCC3C[C@@H](O)CC(=O)O3)[C@H]21` (stereo partly specified), for which the TGI with MOLT-4 leukemia was greater than 100 µM; in the assay on SNB-75 CNS, 7.85 µM; in the assay on NCI-H460 lung it was greater than 100 µM; in the assay with SK-MEL-28 melanoma it was greater than 100 µM; in the assay with HS 578T breast, greater than 100 µM; in the assay on M14 melanoma, greater than 100 µM. The TGI in the assay on SNB-19 CNS and in the assay on SF-539 CNS was greater than 100 µM each time. In addition, the GI50 with SNB-75 CNS is 1.33 µM; with NCI-H460 lung, 4.9 µM; with SK-MEL-28 melanoma, 84.9 µM; in the assay with HS 578T breast, 5.19 µM; with SNB-19 CNS, 18.4 µM; in the assay with SF-539 CNS, 83.2 µM.

Values taken from PubChem BioAssay (NCI).
